Key:
Assay type in all cases: in vivo
APP-Tg mouse brain = test: PET imaging of Alzheimer disease model animal (APP-Tg mouse vs wild type mouse)
From the text: PET images were taken using an Alzheimer disease model mouse for the [^11C]ketoprofen methyl ester (21) synthesized in Example 6. For the Alzheimer disease model mouse, a transgenic mouse (APP-Tg) excessively expressing amyloid precursor protein (APP) in familial Alzheimer disease was purchased from Taconic Farms, Inc. USA to be used. In 24 months old when accumulation of amyloid β protein was confirmed as pathological change of Alzheimer disease, the [^11C]ketoprofen methyl ester (21) was administered through a caudal vein, and PET images were taken for 30 minutes using a PET apparatus for small animals (microPET, manufactured by SIMENS). The injection solution of the [^11C]ketoprofen methyl ester (21) (radioactivity 45 to 60 MBq) was prepared by diluting with saline to 1.0 CC volume. SUV (Standard Uptake Value)=tissue radioactivity in region of interest (MBq/g)÷[administration amount (MBq)/body weight (g)] was used as the index of an accumulation level, to compare with a brain of a wild type mouse that is a normal mouse in terms of an accumulation amount into the APP-Tg mouse brain.

cyclooxygenase-2 [1] = test: PET imaging using brain inflammation model rat (LPS injected into left striatum)
Procedure: PET was performed using a brain inflammation model rat for the [^11C]ketoprofen methyl ester (8) synthesized in Example 6. In the experiment, a trace amount, 0.5 μg, of lipopolysaccharide (LPS) that is a constituent of a gram-negative bacteria cell wall outer membrane was injected into the left striatum of a rat, thereby inducing brain inflammation (Hunter R L, Dragicevic N, Seifert K, Choi D Y, Liu M, Kim H C, Cass W A, Sullivan P G, Bing G. Inflammation induces mitochondrial dysfunction and dopaminergic neurodegeneration in the nigrostriatal system. J. Neurochem. 2007100:5:1375-86.). The [^11C]ketoprofen methyl ester (8) was administered to a rat after 1 day from injection of LPS through a caudal vein, PET was performed for 45 minutes using a PET apparatus for small animals (manufactured by microPET, SIMENS). The injection solution of the [^11C]ketoprofen methyl ester (radioactivity 72 to 74 MBq) was prepared by diluting with saline to 1.0 CC volume. In order to further study an effect of inhibiting bonds by a non-RI labeled body, an injection solution added with 10 mg/kg of ketoprofen methyl ester (final concentration of a solvent was 5% DMSO, 5% tween20) was prepared. On completion of PET imaging, a rat brain section was prepared and an Ex vivo autoradiography (ARG) experiment was performed. In the experiment, the rat was perfused with saline, and a section prepared with 2 mm thickness, which was obtained from the brain taken out from the rat, was exposed on an imaging plate BAS SR-2040 (manufactured by Fujifilm Corporation) for 1 hour to read using a fluoroimage analyzer (FLA7000). In order to identify an expression site of cyclooxygenase-2, chemical staining of an immune tissue in a brain section was performed using a specific antibody. That is, 20 μm of a frozen section prepared from the brain section used in the autoradiography mentioned above and pasted on a slide glass was incubated with anti-cyclooxygenase-2 (rabbit IgG, polyclonal antibody, manufactured by Cayman) diluted to PBS-T at a concentration of 200 times as a primary antibody at 4° C. overnight. […]

cyclooxygenase-2 [2] = test: Ex vivo autoradiography (ARG) of rat brain section after PET, compared with cyclooxygenase-2 immunostaining
Procedure: PET was performed using a brain inflammation model rat for the [^11C]ketoprofen methyl ester (8) synthesized in Example 6. In the experiment, a trace amount, 0.5 μg, of lipopolysaccharide (LPS) that is a constituent of a gram-negative bacteria cell wall outer membrane was injected into the left striatum of a rat, thereby inducing brain inflammation (Hunter R L, Dragicevic N, Seifert K, Choi D Y, Liu M, Kim H C, Cass W A, Sullivan P G, Bing G. Inflammation induces mitochondrial dysfunction and dopaminergic neurodegeneration in the nigrostriatal system. J. Neurochem. 2007100:5:1375-86.). The [^11C]ketoprofen methyl ester (8) was administered to a rat after 1 day from injection of LPS through a caudal vein, PET was performed for 45 minutes using a PET apparatus for small animals (manufactured by microPET, SIMENS). The injection solution of the [^11C]ketoprofen methyl ester (radioactivity 72 to 74 MBq) was prepared by diluting with saline to 1.0 CC volume. […] In the experiment, the rat was perfused with saline, and a section prepared with 2 mm thickness, which was obtained from the brain taken out from the rat, was exposed on an imaging plate BAS SR-2040 (manufactured by Fujifilm Corporation) for 1 hour to read using a fluoroimage analyzer (FLA7000). […]

Structure (SMILES): COC(=O)C([11CH3])c1cccc(C(=O)c2ccccc2)c1 (stereo not shown) [[^11C]ketoprofen methyl ester (8), [^11C]ketoprofen methyl ester]
- accumulation amount (SUV) in brain, APP-Tg versus wild type mouse (APP-Tg mouse brain; 24 months old APP-Tg mouse, caudal vein, PET images in 25 minutes after 5 minutes from administration): highly accumulated in the APP-Tg mouse brain as compared with the wild type mouse brain
- site of high accumulation versus reported site of amyloid β accumulation (APP-Tg mouse brain; APP-Tg mouse brain, compared with literature report (Am J Pathol. 1998)): corresponded with a site that was reported of accumulation of amyloid β
- accumulation in inflammation region with co-administered non-RI labeled ketoprofen methyl ester (specificity) (cyclooxygenase-2 [1]; 10 mg/kg of non-RI labeled ketoprofen methyl ester added to injection solution): significantly reduced
- passage through the blood-brain barrier (PET) (cyclooxygenase-2 [1]; rat 1 day after 0.5 μg LPS into left striatum, tracer via caudal vein, PET 45 minutes): passed through the blood-brain barrier
- accumulation of radioactivity in brain (addition average of PET images) (cyclooxygenase-2 [1]; rat 1 day after LPS into left striatum, tracer via caudal vein, 45 minutes after administration): accumulated in an inflammation region around the LPS injected site in the left side of the brain
- accumulation in ex vivo autoradiography (ARG) of rat brain section (cyclooxygenase-2 [2]; 2 mm brain section taken on completion of PET imaging, LPS rat): accumulated specifically in an inflammation site
- accumulated site versus immunostaining of cyclooxygenase-2 (cyclooxygenase-2 [2]; 20 μm frozen section from ARG brain section, anti-cyclooxygenase-2 antibody, DAB method): correspond with a positive site of immunostaining of cyclooxygenase-2

From patent US8778298B2, “Isotope labeled 2-arylpropionic acid compounds and process for production of same, and molecular probe for positron emission tomography and method for imaging of cyclooxygenase and the like using same” (Riken, priority 2009, dated 2014)
